Assay results reported in patent publication US20250313576A1, “COMPOUND FOR PHOTOO[…] AND MEDICINAL COMPOSITION CONTAINING SAME” (The University of Tokyo, priority 2021, published 2025).

Tests used:
[1] = target: T1, aggregated tau overexpressed in HEK cells (Homo sapiens, UniProt P10636); assay: Intracellular photooxygenation reaction evaluated by Western blotting; format: cell-based; details: for crosslinked product (more than 250 kDa) of the photooxygenation reaction: 595 nm light 15 minutes
T1 construct: expressed in transfected cells; host or cells: HEK cells (line called Fs17)
T1 sequence (P10636 2-412 isoform P10636-7): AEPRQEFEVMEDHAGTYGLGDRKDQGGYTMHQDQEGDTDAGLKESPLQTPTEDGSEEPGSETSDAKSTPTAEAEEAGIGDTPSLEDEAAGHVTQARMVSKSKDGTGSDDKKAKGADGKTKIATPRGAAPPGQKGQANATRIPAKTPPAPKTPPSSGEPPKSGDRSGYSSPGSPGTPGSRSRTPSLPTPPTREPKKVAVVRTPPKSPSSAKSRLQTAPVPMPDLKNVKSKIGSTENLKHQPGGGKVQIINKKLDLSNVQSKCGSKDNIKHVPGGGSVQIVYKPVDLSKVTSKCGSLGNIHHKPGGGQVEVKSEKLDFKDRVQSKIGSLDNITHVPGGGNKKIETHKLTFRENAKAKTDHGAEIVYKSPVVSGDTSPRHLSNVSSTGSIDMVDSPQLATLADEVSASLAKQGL
Description: An intracellular oxygenation reaction by the compounds PzT, OMe, Q, and J of the present invention was performed using HEK cells in which aggregated tau was overexpressed. Specifically, 10 uM of the compound of the present invention was added to a cell medium, and then irradiated with light at 595 nm for 15 minutes. After the reaction, viable cells were collected and lysed, and then the intracellular photooxygenation reaction was evaluated by measurement with Western blotting (FIG. 2). In a case where the compound of the present invention was not added, tau was detected between 75 kDa and 100 kDa by the 5A6 antibody that is a tau specific antibody, and a theoretical molecular weight of the overexpressed tau was about 70 kDa, and therefore, the tau was identified as a monomer.
Similarly, the compounds of the present invention C2OH, O, and O2 were also subjected to an intracellular oxygenation reaction. The cells overexpressing aggregated tau were incubated with a medium containing 1 μM of the compound of the present invention for 10 minutes. Thereafter, light of 595 nm was applied for 15 minutes. Reaction progress was identified and quantified by Western blotting measurements (FIG. 3). […] As a result, it was confirmed that a crosslinked product, which is one of products of a photooxygenation reaction, was detected in a region of more than 250 kDa on the right side of the lane to which the compound was added, whereas no crosslinked body was provided under non-light irradiation conditions, that is, on the left side of each lane in all the compounds, and the reaction proceeded in a light-dependent manner.

[2] = UV-vis spectrum, verification of absorption wavelength; format: physicochemical
Source text: It can be said that the longer the wavelength of light used for a living body, the lower the cytotoxicity and the better the tissue permeability.

overexpressed tau = target: T2, overexpressed tau (Homo sapiens, UniProt P10636); assay: LC-MS/MS analysis of methionine oxidation of overexpressed tau after intracellular reaction; format: cell-based; details: monomeric tau, trypsin digestion, FIG. 6
T2 construct: expressed in transfected cells; host or cells: HEK cells (line called Fs17)
T2 sequence (P10636 1-412 isoform P10636-7): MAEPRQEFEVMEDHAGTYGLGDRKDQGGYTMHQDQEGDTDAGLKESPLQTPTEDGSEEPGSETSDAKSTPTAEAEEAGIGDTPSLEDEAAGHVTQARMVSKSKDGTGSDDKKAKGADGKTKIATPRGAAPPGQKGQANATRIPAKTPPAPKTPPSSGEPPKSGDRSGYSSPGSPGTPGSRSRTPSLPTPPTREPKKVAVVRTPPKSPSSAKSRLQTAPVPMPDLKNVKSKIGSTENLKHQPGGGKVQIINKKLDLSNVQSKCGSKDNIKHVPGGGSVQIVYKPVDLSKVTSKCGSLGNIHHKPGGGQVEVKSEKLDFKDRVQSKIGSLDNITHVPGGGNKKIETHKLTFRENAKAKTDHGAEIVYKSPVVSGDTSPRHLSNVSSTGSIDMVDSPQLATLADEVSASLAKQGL
Description: LC-MS/MS analysis was performed on the reaction product in order to confirm the production of side chain oxygenates that were difficult to specifically detect as a result of overlapping with unreacted substances in Western blotting. Since side chain oxygenates are mainly produced by oxidation of methionine side chains to sulfoxide, it was focused on 4 methionines contained in overexpressed tau having a total length of 412 amino acids. The intracellular protein after the reaction was separated according to the molecular weight by SDS-page, monomeric tau was cut out by trypsin enzyme digestion, and LC-MS/MS measurement was performed. A ratio of the detection intensity of the methionine oxidant was calculated from the sum of the detection intensities of the methionine reductant and the oxidant obtained from MS1 in the LC-MS/MS spectrum (FIG. 6).

[3] = 10 uM compound in cell medium, 5A6 antibody, FIG. 2

Structure (SMILES)	photooxygenation activity relative to the compound Q ([1]; 1 μM compound, 595 nm 15 minutes, quantified by Western blotting)	crosslinked product (more than 250 kDa) of the photooxygenation reaction ([1]; 1 μM compound, 10 minutes incubation, light-dependent, FIG. 3)	λmax (nm), maximum absorption wavelength [2] [nm]	crosslinked product (more than 250 kDa) of the photooxygenation reaction [1, 3]	oxygenation level of methionine compared with control (Vehicle) (overexpressed tau)
OCCN1CCCc2cc(/C=C/C=C/c3nc4ncc(Br)nc4s3)ccc21 [Compound C2OH, 2-(6-((1E,3E)-4-(6-bromothiazolo[4,5-b]pyrazin-2-yl)butadien-1,3-dien-1-yl)-3,4-dihydroquinolin-1(2H)-yl)ethane-1-ol]	twice or more	detected			
Brc1cnc2nc(/C=C/C=C/c3cc4c5c(c3)CCCN5CCC4)sc2n1 [Compound J, 6-Bromo-2-((1E,3E)-4-(2,3,6,7-tetrahydro-1H,5H-pyrido[3,2,1-ij]quinolin-9-yl)butadien-1,3-dien-1-yl)thiazolo[4,5-b]pyrazine]			508	detected	
COc1cc(N(C)C)cc(OC)c1/C=C/C=C/c1nc2ncc(Br)nc2s1 [Compound OMe, 4-((1E,3E)-4-(6-Bromothiazolo[4,5-b]pyrazin-2-yl)butadien-1,3-dien-1-yl)-3,5-dimethoxy-N,N-dimethylaniline]			495	detected	
CN(C)c1ccc(/C=C/C=C/c2nc3ccc(Br)nc3s2)cc1 [Compound PT, 4-((1E,3E)-4-(5-bromothiazolo[5,4-b]pyridin-2-yl)butadien-1,3-dien-1-yl)-N,N-dimethylaniline]			437		
CN(C)c1ccc(/C=C/C=C/c2nc3ncc(Br)nc3s2)cc1 [Compound PzT, 4-((1E,3E)-4-(6-Bromothiazolo[4,5-b]pyrazin-2-yl)butadien-1,3-dien-1-yl)-N,N-dimethylaniline]			468	detected	
CN1CCCc2cc(/C=C/C=C/c3nc4ncc(Br)nc4s3)ccc21 [Compound Q, 6-Bromo-2-((1E,3E)-4-(1-methyl-1,2,3,4-tetrahydroquinolin-6-yl)butadiene-1,3-dien-1-yl)thiazolo[4,5-b]pyrazine]			500	detected	did not change
